US20250122218A1, “MODULATORS OF CYSTIC FIBROSIS TRANSMEMBRANE CONDUCTANCE REGULATOR” (Vertex Pharmaceuticals Incorporated, priority 2022, published 2025)

These compounds were tested against T1, CFTR in F508del/MF-HBE cells (Homo sapiens, UniProt P13569, DEL508-508) (assay: Ussing chamber assay of CFTR-mediated short-circuit currents (identification of potentiator compounds)). Settings: potentiator incubated 18-24 hours at 37° C. in combination with 10 μM corrector, in the presence of 20% human serum, CFTR-mediated ISC.
T1 construct: human bronchial epithelial (HBE) cells derived from CF subjects heterozygous for F508del and a minimal function CFTR mutation; endogenous in cells; host or cells: primary human bronchial epithelial cells from CF subjects (F508del/MF-HBE)
Type: cell-based
Summary of the method: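 Short-circuit current was measured in Ussing chambers at 37° C, Vhold 0 mV, 30 μM apical amiloride. CFTR current was defined as the forskolin (20 μM) response relative to the current remaining after BPO/GlyH-101/inhibitor 172 (20 μM each). Before recording, cells had 18-24 h exposure to test potentiators with 10 μM corrector compound in 20% human serum.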

T1 sequence (P13569 with tags, fused parts or gaps DEL508-508): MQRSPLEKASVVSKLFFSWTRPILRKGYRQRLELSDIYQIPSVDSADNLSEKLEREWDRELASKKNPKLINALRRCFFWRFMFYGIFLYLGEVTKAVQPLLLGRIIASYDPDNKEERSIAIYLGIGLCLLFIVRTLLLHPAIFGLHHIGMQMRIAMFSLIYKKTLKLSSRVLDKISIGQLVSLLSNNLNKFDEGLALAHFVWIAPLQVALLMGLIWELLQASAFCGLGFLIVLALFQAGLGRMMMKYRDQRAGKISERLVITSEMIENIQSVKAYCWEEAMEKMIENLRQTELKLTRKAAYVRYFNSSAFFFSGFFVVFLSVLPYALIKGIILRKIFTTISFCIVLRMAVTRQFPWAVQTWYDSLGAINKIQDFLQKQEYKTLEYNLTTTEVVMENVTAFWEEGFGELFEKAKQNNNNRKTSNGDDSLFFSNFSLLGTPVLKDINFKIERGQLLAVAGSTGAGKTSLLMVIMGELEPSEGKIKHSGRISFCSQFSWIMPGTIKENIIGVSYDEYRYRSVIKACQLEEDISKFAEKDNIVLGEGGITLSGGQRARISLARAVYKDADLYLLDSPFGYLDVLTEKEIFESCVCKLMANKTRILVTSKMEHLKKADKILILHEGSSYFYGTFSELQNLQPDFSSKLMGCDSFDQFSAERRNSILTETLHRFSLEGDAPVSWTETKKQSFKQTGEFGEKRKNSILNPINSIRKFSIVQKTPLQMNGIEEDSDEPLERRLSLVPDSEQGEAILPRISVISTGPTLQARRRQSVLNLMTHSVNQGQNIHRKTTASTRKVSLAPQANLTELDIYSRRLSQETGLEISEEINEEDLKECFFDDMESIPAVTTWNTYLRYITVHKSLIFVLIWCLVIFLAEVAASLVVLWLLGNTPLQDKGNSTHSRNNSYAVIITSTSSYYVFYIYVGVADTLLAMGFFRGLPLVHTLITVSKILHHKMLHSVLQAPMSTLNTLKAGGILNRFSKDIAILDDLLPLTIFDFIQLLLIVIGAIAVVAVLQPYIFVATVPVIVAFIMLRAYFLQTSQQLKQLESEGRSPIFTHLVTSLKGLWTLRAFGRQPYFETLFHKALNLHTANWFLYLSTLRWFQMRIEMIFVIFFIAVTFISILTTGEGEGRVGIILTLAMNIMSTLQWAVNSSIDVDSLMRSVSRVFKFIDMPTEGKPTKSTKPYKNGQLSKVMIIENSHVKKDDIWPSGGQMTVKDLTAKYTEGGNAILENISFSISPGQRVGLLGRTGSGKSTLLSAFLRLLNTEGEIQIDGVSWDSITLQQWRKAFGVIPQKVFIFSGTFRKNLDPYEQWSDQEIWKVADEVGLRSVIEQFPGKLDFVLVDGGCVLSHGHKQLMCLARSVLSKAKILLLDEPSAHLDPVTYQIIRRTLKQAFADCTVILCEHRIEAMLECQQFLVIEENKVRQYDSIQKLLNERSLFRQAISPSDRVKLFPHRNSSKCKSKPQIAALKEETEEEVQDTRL

Row | Compound | EC50
1 | CN1CCCCC(O)(C(F)(F)F)C2=NN=C(O2)c2nc(c(C(F)(F)F)cc2N)CC1=O (stereo not drawn) [Compound 53, 17-amino-6-hydroxy-11-methyl-6,15-bis(trifluoromethyl)-19-oxa-3,4,11,18-tetrazatricyclo[12.3.1.12,5]nonadeca-1(18),2,4,14,16-pentaen-12-one] | > 1 µM
2 | COC1CCCCc2ccc(F)c(c2)C(O)(C(F)(F)F)C2=NN=C(O2)c2nc1c(C(F)(F)F)cc2N (stereo not drawn) [Compound 61, 20-Amino-8-fluoro-16-methoxy-6,18-bis(trifluoromethyl)-23-oxa-3,4,21-triazatetracyclo[15.3.1.12,5.17,11]tricosa-1(21),2,4,7(22),8,10,17,19-octaen-6-ol] | < 0.5 µM
3 | COC1CCCCc2ccc(F)c(c2)C(O)(C(F)(F)F)C2=NN=C(O2)c2nc1c(C(F)(F)F)cc2N (stereo not drawn) [Compound 62, 20-Amino-8-fluoro-16-methoxy-6,18-bis(trifluoromethyl)-23-oxa-3,4,21-triazatetracyclo[15.3.1.12,5.17,11]tricosa-1(21),2,4,7(22),8,10,17,19-octaen-6-ol] | < 0.5 µM
4 | N#CC1CCCCc2cccc(c2)C(O)(C(F)(F)F)C2=NN=C(O2)c2nc1c(C(F)(F)F)cc2N (stereo not drawn) [Compound 63, 20-amino-6-hydroxy-6,18-bis(trifluoromethyl)-23-oxa-3,4,21-triazatetracyclo[15.3.1.12,5.17,11]tricosa-1(21),2,4,7,9,11(22),17,19-octaene-16-carbonitrile] | < 0.5 µM
5 | N#CC1CCCCc2cccc(c2)C(O)(C(F)(F)F)C2=NN=C(O2)c2nc1c(C(F)(F)F)cc2N (stereo not drawn) [Compound 64, 20-amino-6-hydroxy-6,18-bis(trifluoromethyl)-23-oxa-3,4,21-triazatetracyclo[15.3.1.12,5.17,11]tricosa-1(21),2,4,7,9,11(22),17,19-octaene-16-carbonitrile] | < 0.5 µM
6 | N#CC1CCCCc2ccc(F)c(c2)C(O)(C(F)(F)F)C2=NN=C(O2)c2nc1c(C(F)(F)F)cc2N (stereo not drawn) [Compound 69, 20-Amino-8-fluoro-6-hydroxy-6,18-bis(trifluoromethyl)-23-oxa-3,4,21-triazatetracyclo[15.3.1.12,5.17,11]tricosa-1(21),2,4,7,9,11(22),17,19-octaene-16-carbonitrile] | < 0.5 µM
7 | COc1ccc(CN2CCCCC[C@](O)(C(F)(F)F)C3=NN=C(O3)c3nc(c(C(F)(F)F)cc3N)C2=O)cc1 [Compound 76, (6R)-17-Amino-6-hydroxy-12-[(4-methoxyphenyl)methyl]-6,15-bis (trifluoromethyl)-19-oxa-3,4,12,18-tetrazatricyclo [12.3.1.12,5] nonadeca-1(18),2,4,14,16-pentaen-13-one] | < 0.5 µM
8 | CC(C)(C)CN1CCCCC[C@](O)(C(F)(F)F)C2=NN=C(O2)c2nc(c(C(F)(F)F)cc2N)C1=O [Compound 80, (6R)-17-Amino-12-(2,2-dimethylpropyl)-6-hydroxy-6,15-bis (trifluoromethyl)-19-oxa-3,4,12,18-tetrazatricyclo [12.3.1.12,5] nonadeca-1(18),2,4,14,1 6-pentaen-13-one] | < 0.5 µM
9 | Nc1cc(C(F)(F)F)c2nc1-c1nnc(o1)[C@@](O)(C(F)(F)F)CCCCCN(C1CCCCC1)C2=O [Compound 81, (6R)-17-Amino-12-cyclohexyl-6-hydroxy-6,15-bis (trifluoromethyl)-19-oxa-3,4,12,18-tetrazatricyclo [12.3.1.12,5] nonadeca-1(18),2,4,14,1 6-pentaen-13-one] | < 0.5 µM
10 | CCCN1CCCCC[C@](O)(C(F)(F)F)C2=NN=C(O2)c2nc(c(C(F)(F)F)cc2N)C1=O [Compound 82, (6R)-17-Amino-6-hydroxy-12-propyl-6,15-bis (trifluoromethyl)-19-oxa-3,4,12,18-tetrazatricyclo [12.3.1.12,5] nonadeca-1(18),2,4,14,1 6-pentaen-13-one] | < 0.5 µM
11 | Nc1cc(C(F)(F)F)c2nc1-c1nnc(o1)[C@@](O)(C(F)(F)F)CCCCCN(CC1CC1)C2=O [Compound 83, (6R)-17-Amino-12-(cyclopropylmethyl)-6-hydroxy-6,15-bis(trifluoromethyl)-19-oxa-3,4,12,18-tetrazatricyclo [12.3.1.12,5] nonadeca-1(18),2,4,14,1 6-pentaen-13-one] | < 0.5 µM
12 | Nc1cc(C(F)(F)F)c2nc1-c1nnc(o1)[C@@](O)(C(F)(F)F)CCCCCN(C1CC(F)(F)C1)C2=O [Compound 84, (6R)-17-Amino-12-(3,3-difluorocyclobutyl)-6-hydroxy-6,15-bis (trifluoromethyl)-19-oxa-3,4,12,18-tetrazatricyclo [12.3.1.12,5] nonadeca-1(18),2,4,14,1 6-pentaen-13-one] | < 0.5 µM
13 | CC(C)(C)N1CCCCC[C@](O)(C(F)(F)F)C2=NN=C(O2)c2nc(c(C(F)(F)F)cc2N)C1=O [Compound 85, (6R)-17-Amino-12-tert-butyl-6-hydroxy-6,15-bis(trifluoromethyl)-19-oxa-3,4,12,18-tetrazatricyclo [12.3.1.12,5] nonadeca-1(18),2,4,14,1 6-pentaen-13-one] | < 0.5 µM
14 | Nc1cc(C(F)(F)F)c2nc1-c1nnc(o1)[C@@](O)(C(F)(F)F)CCCCCN(C13CC(C1)C3)C2=O [Compound 86, (6R)-17-Amino-12-(1-bicyclo[1.1.1]pentanyl)-6-hydroxy-6,15-bis (trifluoromethyl)-19-oxa-3,4,12,18-tetrazatricyclo [12.3.1.12,5] nonadeca-1(18),2,4,14,1 6-pentaen-13-one] | < 0.5 µM
15 | Nc1cc(C(F)(F)F)c2nc1-c1nnc(o1)[C@@](O)(C(F)(F)F)CCCCCN(C1CC3(CCC3)C1)C2=O [Compound 87, (6R)-17-Amino-6-hydroxy-12-spiro[3.3]heptan-2-yl-6,15-bis(trifluoromethyl)-19-oxa-3,4,12,18-tetrazatricyclo [12.3.1.12,5] nonadeca-1(18),2,4,14,1 6-pentaen-13-one] | < 0.5 µM
16 | CC[C@H](C)N1CCCCC[C@](O)(C(F)(F)F)C2=NN=C(O2)c2nc(c(C(F)(F)F)cc2N)C1=O [Compound 88, (6R)-17-Amino-6-hydroxy-12-[(1S)-1-methylpropyl]-6,15-bis (trifluoromethyl)-19-oxa-3,4,12,18-tetrazatricyclo [12.3.1.12,5] nonadeca-1(18),2,4,14,1 6-pentaen-13-one] | < 0.5 µM
17 | CC[C@@H](C)N1CCCCC[C@](O)(C(F)(F)F)C2=NN=C(O2)c2nc(c(C(F)(F)F)cc2N)C1=O [Compound 89, (6R)-17-Amino-6-hydroxy-12-[(1R)-1-methylpropyl]-6,15-bis (trifluoromethyl)-19-oxa-3,4,12,18-tetrazatricyclo [12.3.1.12,5] nonadeca-1(18),2,4,14,1 6-pentaen-13-one] | < 0.5 µM
18 | CCC(C)(C)N1CCCCC[C@](O)(C(F)(F)F)C2=NN=C(O2)c2nc(c(C(F)(F)F)cc2N)C1=O [Compound 90, (6R)-17-Amino-12-(1,1-dimethylpropyl)-6-hydroxy-6,15-bis(trifluoromethyl)-19-oxa-3,4,12,18-tetrazatricyclo [12.3.1.12,5] nonadeca-1(18),2,4,14,1 6-pentaen-13-one] | < 0.5 µM
19 | Nc1cc(C(F)(F)F)c2nc1-c1nnc(o1)[C@@](O)(C(F)(F)F)CCCCCN(C1CCC(F)(F)CC1)C2=O [Compound 91, (6R)-17-Amino-12-(4,4-difluorocyclohexyl)-6-hydroxy-6,15-bis (trifluoromethyl)-19-oxa-3,4,12,18-tetrazatricyclo [12.3.1.12,5] nonadeca-1(18),2,4,14,1 6-pentaen-13-one] | < 0.5 µM
20 | Nc1cc(C(F)(F)F)c2nc1-c1nnc(o1)[C@@](O)(C(F)(F)F)CCCCCN(C1C3CC1C3)C2=O (stereo partly drawn) [Compound 92, (6R)-17-Amino-12-(2-bicyclo[1.1.1]pentanyl)-6-hydroxy-6,15-bis(trifluoromethyl)-19-oxa-3,4,12,18-tetrazatricyclo [12.3.1.12,5] nonadeca-1(18),2,4,14,1 6-pentaen-13-one] | < 0.5 µM
21 | CC1(C)CC(N2CCCCC[C@](O)(C(F)(F)F)C3=NN=C(O3)c3nc(c(C(F)(F)F)cc3N)C2=O)C1 [Compound 93, (6R)-17-Amino-12-(3,3-dimethylcyclobutyl)-6-hydroxy-6,15-bis (trifluoromethyl)-19-oxa-3,4,12,18-tetrazatricyclo [12.3.1.12,5] nonadeca-1(18),2,4,14,1 6-pentaen-13-one] | < 0.5 µM
22 | CC1(N2CCCCC[C@](O)(C(F)(F)F)C3=NN=C(O3)c3nc(c(C(F)(F)F)cc3N)C2=O)CC1 [Compound 94, (6R)-17-Amino-6-hydroxy-12-(1-methylcyclopropyl)-6,15-bis (trifluoromethyl)-19-oxa-3,4,12,18-tetrazatricyclo [12.3.1.12,5] nonadeca-1(18),2,4,14,1 6-pentaen-13-one] | < 0.5 µM
23 | Nc1cc(C(F)(F)F)c2nc1-c1nnc(o1)[C@@](O)(C(F)(F)F)CCCCCN(C1CC3(C1)CC(F)(F)C3)C2=O [Compound 95, (6R)-17-Amino-12-(2,2-difluorospiro [3.3]heptan-6-yl)-6-hydroxy-6,15-bis (trifluoromethyl)-19-oxa-3,4,12,18-tetrazatricyclo [12.3.1.12,5] nonadeca-1(18),2,4,14,1 6-pentaen-13-one] | < 0.5 µM
24 | CC1(N2CCCCC[C@](O)(C(F)(F)F)C3=NN=C(O3)c3nc(c(C(F)(F)F)cc3N)C2=O)CC(F)(F)C1 [Compound 96, (6R)-17-Amino-12-(3,3-difluoro-1-methyl-cyclobutyl)-6-hydroxy-6,15-bis (trifluoromethyl)-19-oxa-3,4,12,18-tetrazatricyclo [12.3.1.12,5] nonadeca-1(18),2,4,14,1 6-pentaen-13-one] | < 0.5 µM
